{"source": "patent US20220142967A1", "about": "“Methods and Compositions for the Treatment of Multiple Sclerosis” (SYMBIONYX PHARMACEUTICALS INC, priority 2018, published 2022)", "key": {"[1]": {"test_system": "cultured human keratinocytes (KCs)", "assay": "Microarray genome-wide expression, IDMF vs. CTL, MS-associated genes", "assay_type": "cell-based", "method": "RNA sample processing and microarray hybridizations were performed using the Affymetrix Human Genome U133 Plus 2.0 array platform. DNA microarray samples evaluated included IDMF- and vehicle-treated KCs (n=2 replicates per group). Samples were normalized using the robust multichip average (RMA) algorithm. Identification of probe sets with detectable expression was performed using the MAS 5.0 method, which identifies probe sets with above-background expression based upon the Wilcoxon signed rank test. To limit redundancy in downstream analyses, a single probe set was chosen to represent each protein-coding human gene featured on the microarray platform. This representative was chosen as the probe set with highest expression for each protein-coding human gene. These probe sets were then additionally filtered to include only those with detectable expression in at least 1 of the 4 samples (P<0.05, Wilcoxon signed rank test). Overall, this yielded a total of 12330 protein-coding genes that were included in analyses, with each gene represented by a single representative probe set. Bayesian linear models and moderated t-statistics were then used to evaluate differential expression for each of the 12330 genes (IDMF vs. CTL treatment; R package: limma). To control the false discovery rate (FDR), raw p-values generated from linear model analyses were adjusted using the Benjamini-Hochberg method.\nGenes associated with multiple sclerosis were identified based upon four established database sources: (1) the NHGRI-EBI genome-wide association (GWA) study catalogue, (2) the Disease Ontology (DO) database, (3) the DisGeNET database, and (4) the Medical Subject Heading (MESH) database. While there is some overlap between the various databases, the variation in identified genes from one database to the other reflects the fact that the science is still developing and has uncertainties. Nevertheless, as discussed below, efforts were undertaken to hone in on genes common to multiple databases. […]"}, "[2]": {"molecular_target": "T1, carboxylesterase 2 (CES2) (Homo sapiens, UniProt O00748)", "T1 sequence (O00748 27-559)": "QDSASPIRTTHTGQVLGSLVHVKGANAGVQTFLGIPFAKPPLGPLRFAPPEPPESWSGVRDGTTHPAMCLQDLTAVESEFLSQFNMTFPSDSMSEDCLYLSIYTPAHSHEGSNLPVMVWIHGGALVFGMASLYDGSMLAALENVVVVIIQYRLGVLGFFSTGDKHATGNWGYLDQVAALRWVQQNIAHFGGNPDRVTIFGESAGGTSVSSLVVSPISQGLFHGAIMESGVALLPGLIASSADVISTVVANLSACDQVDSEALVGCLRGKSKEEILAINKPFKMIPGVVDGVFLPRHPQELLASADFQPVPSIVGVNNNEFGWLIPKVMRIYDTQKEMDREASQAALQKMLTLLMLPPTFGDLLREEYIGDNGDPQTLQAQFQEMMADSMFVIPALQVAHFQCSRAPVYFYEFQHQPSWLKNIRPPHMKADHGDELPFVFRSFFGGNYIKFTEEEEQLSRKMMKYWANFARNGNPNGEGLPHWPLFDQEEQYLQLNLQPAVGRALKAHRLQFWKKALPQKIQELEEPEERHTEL", "assay": "Carboxylesterase hydrolysis IDMF v DMF", "assay_type": "in vitro ADME", "conditions": "for remaining parent compound: 1 mg/ml CES2, 37° C., pH 7.4", "method": "IDMF and DMF were subjected to carboxylesterase hydrolysis. […] 1 mg/ml carboxylesterase 2 (CES2) was added to each solution and the solutions incubated at 37° C. for the time periods set forth in Table 5. […] Isosorbide was quantified using CAD. Mobile phase used for the study: 0.1% Formic acid in water; B: Methanol. Column: Luna C18 4.6 mm×100 mm, 5 u (Phenomenex). Flow rate: 1.0 ml/min."}, "[3]": {"test_system": "NRF2 (NF-E2-related factor 2) transcription factor", "assay": "Cignal ARE Reporter Assay, NRF2-mediated luciferase gene expression in HEK293 cells", "assay_type": "cell-based", "conditions": "HEK293, 24 h", "method": "2017 December; 23(14):1875-1883. doi: 10.1177/1352458517690617. Epub 2017 Feb.\nThe experiments were performed using HEK293 cells (Sigma, St. Louis, Mo.; cat. #85120602) seeded at 50,000 per well in a 96 well white opaque-wall tissue culture plates. Cells were transfected by mixing Cignal Reporter Assay firefly/renilla luciferase constructs (cat. # CCS-5020L; Qiagen) with Attractene Transfection Reagent (Qiagen) in Opti-MEM (ThermoFisher Scientific, Waltham, Mass.) supplemented with 1% MEM Non-essential amino acid solution without L-glutamine (Sigma; cat. #M7145). After medium change test materials were added and their effect on NRF2 induction was quantified 24 h later with the Dual-Luciferase Reporter Assay System (cat. #E1960; Promega, Madison, Wis.).\nThe ARE (antioxidant response element) reporter is a mixture of a Nrf2-responsive luciferase construct encoding the firefly luciferase reporter gene under the control of a minimal (m)CMV promoter and tandem repeats of the ARE transcriptional response element, and a constitutively expressing Renilla element (40:1), which acts as an internal control for normalizing transfection efficiencies and monitoring cell viability. […] Signal quantification was obtained with ThermoFisher Scientific Luminoskan Ascent Microplate Luminometer."}, "[4]": {"conditions": "genes common to at least two of four databases"}}, "note": "Structures can show the parent of a compound that is named as a salt.", "data": [{"compound": "COC(=O)/C=C/C(=O)O[C@H]1CO[C@H]2[C@@H]1OC[C@H]2OC(=O)/C=C/C(=O)OC", "note": "[IDMF, isosorbide di-(methyl fumarate)]", "values": [{"measurement": "average fold-change (IDMF/CTL) of MS-associated genes vs. randomly sampled gene sets", "setting": "[1]; 76 MS-associated genes from the Disease Ontology (DO) database, P<0.001", "value": "significantly lower"}, {"measurement": "MS-associated genes most strongly decreased", "setting": "[1]; [4]", "value": "ICAM1, PLAT, and MMP9"}, {"measurement": "MS-associated genes most strongly increased", "setting": "[1]; [4]", "value": "POPDC3, MMP3, and DDAH1"}, {"measurement": "remaining parent compound", "setting": "[2]; 0 minutes", "value": 1.027, "unit": "mM"}, {"measurement": "remaining parent compound", "setting": "[2]; 15 minutes", "value": 0.072, "unit": "mM"}, {"measurement": "time by which essentially all is hydrolyzed", "setting": "[2]; CES2, 37° C.", "value": "≤ 15", "unit": "min"}, {"measurement": "Fold Change v. water control (1), NRF2-mediated luciferase gene expression", "setting": "[3]; 1 μg/ml", "value": 2.78, "unit": "fold"}, {"measurement": "Fold Change v. water control (1), NRF2-mediated luciferase gene expression", "setting": "[3]; 10 μg/ml", "value": 4.61, "unit": "fold"}]}]}
